For this assay, the target named is T1, IRAK4 (Homo sapiens, UniProt Q9NWZ3).
T1 construct: C-terminal HiBiT-tagged Jurkat cells (polyclonal cell line or clone 8D5); endogenous in cells; host or cells: Jurkat cells (polyclonal cell line or clone 8D5), HiBiT-tagged
T1 sequence (Q9NWZ3 1-460): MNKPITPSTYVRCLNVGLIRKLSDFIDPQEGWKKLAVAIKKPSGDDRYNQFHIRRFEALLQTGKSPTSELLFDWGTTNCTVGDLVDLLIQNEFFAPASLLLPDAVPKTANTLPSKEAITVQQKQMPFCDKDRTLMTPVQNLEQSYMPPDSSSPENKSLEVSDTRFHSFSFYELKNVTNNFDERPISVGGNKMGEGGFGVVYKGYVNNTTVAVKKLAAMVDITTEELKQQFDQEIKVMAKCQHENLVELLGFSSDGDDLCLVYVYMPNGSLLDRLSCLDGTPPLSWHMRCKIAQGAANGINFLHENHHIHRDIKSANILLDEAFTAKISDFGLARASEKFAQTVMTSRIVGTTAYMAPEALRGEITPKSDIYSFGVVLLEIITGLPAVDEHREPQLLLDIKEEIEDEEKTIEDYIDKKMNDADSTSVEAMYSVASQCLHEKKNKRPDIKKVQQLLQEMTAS
Description: IRAK4 Degradation HiBit Assay. The settings on record: C-terminal HiBiT-tagged Jurkat cells, 4 hrs incubation; for DC50: % IRAK4 remaining, four-parameter fit (IC50 used as DC50); for Dmax: from fit of % IRAK4 remaining, read-out: Dmax. The assay is classed as cell-based. An outline of the steps:
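Degradation was quantified by luminescence after adding lytic detection reagent containing LgBiT to HiBiT-tagged Jurkat cells (polyclonal or clone 8D5). Cells were treated 4 h at 32 °C across 11 concentrations from 10 μM to 0.1 nM final. Four-parameter curve fitting of % IRAK4 remaining versus DMSO gave DC50 and Dmax.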
(In general: With HiBiT, luminescence reflects the tagged protein that the partner subunit can reach.)

These results are taken from patent publication US12570662B2, “Substituted pyrrolo[1,2-b]pyridazines as bifunctional degraders of interleukin-1 receptor-associated kinases” (Nurix Therapeutics, Inc., priority 2021, dated 2026).

Usually DC50 stands for the concentration at which degradation of the target reaches its halfway point. Usually Dmax stands for the greatest extent of degradation seen. As to `CNc1cc(-c2ccc3cc(C#N)cnn23)ncc1-c1nnc([C@H]2CC[C@H](C(=O)N3CCN(c4ccc([C@@H]5CCC(=O)NC5=O)cn4)CC3)CC2)s1` (racemic) [Example 39, 7-[4-(methylamino)-5-{5-[(1r,4r)-4-(4-{5-[(3RS)-2,6-dioxopiperidin-3-yl]pyridin-2-yl}piperazine-1-carbonyl)cyclohexyl]-1,3,4-thiadiazol-2-yl}pyridin-2-yl]pyrrolo[1,2-b]pyridazine-3-carbonitrile], the DC50 was 19 nM and the Dmax is 108%.

As to `CNc1cc(-c2ccc3cc(C#N)cnn23)ncc1-c1nnc(C2CCC(C(=O)N3CCN(c4ccc([C@@H]5CCC(=O)NC5=O)cc4)CC3)CC2)s1` (mixture of isomers) [Example 32, 7-[4-(methylamino)-5-{5-[(1rs&,4rs&)-4-(4-{4-[(3RS)-2,6-dioxopiperidin-3-yl]phenyl}piperazine-1-carbonyl)cyclohexyl]-1,3,4-thiadiazol-2-yl}pyridin-2-yl]pyrrolo[1,2-b]pyridazine-3-carbonitrile], the DC50 is 10 nM and the Dmax was determined as 54%.

As to `CC(C)Nc1cc(-c2ccc3cc(C#N)cnn23)ncc1-c1nnc(N2CCN(CC3CCN(c4ccc(C5CCC(=O)NC5=O)cc4)CC3)CC2)s1` (racemic) [Example 64, rac-7-[5-(5-{4-[(1-{4-[(3R)-2,6-dioxopiperidin-3-yl]phenyl}piperidin-4-yl)methyl]piperazin-1-yl}-1,3,4-thiadiazol-2-yl)-4-[(propan-2-yl)amino]pyridin-2-yl]pyrrolo[1,2-b]pyridazine-3-carbonitrile], the half-maximal degradation concentration (DC50) came out at 123 nM and the Dmax was determined as 76%.

For the compound `CN(CC1CCN(c2ccc([C@@H]3CCC(=O)NC3=O)cn2)CC1)[C@H]1CC[C@H](c2nnc(-c3cnc(-c4ccc5cc(C#N)cnn45)cc3NC3CCOCC3)s2)CC1` (racemic) [Example 82, 7-{4-[(oxan-4-yl)amino]-5-{5-[(1r,4r)-4-{[(1-{5-[(3RS)-2,6-dioxopiperidin-3-yl]pyridin-2-yl}piperidin-4-yl)methyl](methyl)amino}cyclohexyl]-1,3,4-thiadiazol-2-yl}pyridin-2-yl}pyrrolo[1,2-b]pyridazine-3-carbonitrile], it took 8 nM to reach half-maximal degradation (DC50) and the Dmax is 114%.

On to `N#Cc1cnn2c(-c3cc(NC4CC4)c(-c4nnc(N5CC6CCC(C5)N6CC5CCN(c6ccc([C@@H]7CCC(=O)NC7=O)cc6)CC5)s4)cn3)ccc2c1` (single isomer, unassigned) [Example 123], for which the half-maximal degradation concentration (DC50) turned out to be 80 nM and the Dmax worked out at 96%.

As to `CC1(Nc2cc(-c3ccc4cc(C#N)cnn34)ncc2-c2nnc(N3CCN(CC4CCN(c5ccc(N6CCC(=O)NC6=O)cn5)CC4)CC3)s2)COC1` [Example 80, 7-(5-{5-[4-({1-[5-(2,4-dioxo-1,3-diazinan-1-yl)pyridin-2-yl]piperidin-4-yl}methyl)piperazin-1-yl]-1,3,4-thiadiazol-2-yl}-4-[(3-methyloxetan-3-yl)amino]pyridin-2-yl)pyrrolo[1,2-b]pyridazine-3-carbonitrile], half-maximal degradation (DC50) was put at 84 nM and the Dmax was 90%.

For `CNc1cc(-c2ccc3cc(C#N)cnn23)ncc1-c1nnc([C@H]2CC[C@H](N(C)CC3CCN(c4ccc([C@@H]5CCC(=O)NC5=O)cn4)CC3)CC2)s1` (racemic) [Example 52, 7-[4-(methylamino)-5-{5-[(1r,4r)-4-{[(1-{5-[(3RS)-2,6-dioxopiperidin-3-yl]pyridin-2-yl}piperidin-4-yl)methyl](methyl)amino}cyclohexyl]-1,3,4-thiadiazol-2-yl}pyridin-2-yl]pyrrolo[1,2-b]pyridazine-3-carbonitrile], the DC50 was determined as 19 nM and the Dmax is 113%.

As for `N#Cc1cnn2c(-c3cc(NC4CC4)c(-c4nnc(N5CCN(CC6CCN(c7ccc(C8CCC(=O)NC8=O)cc7)CC6)CC5)s4)cn3)ccc2c1` (racemic) [Example 77, rac-7-[4-(cyclopropylamino)-5-(5-{4-[(1-{4-[(3R)-2,6-dioxopiperidin-3-yl]phenyl}piperidin-4-yl)methyl]piperazin-1-yl}-1,3,4-thiadiazol-2-yl)pyridin-2-yl]pyrrolo[1,2-b]pyridazine-3-carbonitrile], the half-maximal degradation concentration (DC50) was found to be 53 nM and the Dmax came to 90%.

In the case of `CC(C)Nc1cc(-c2ccc3cc(C#N)cnn23)ncc1-c1nnc(N2CCN(CC3CCN(c4ccc(C5CCC(=O)NC5=O)cn4)CC3)CC2)s1` (racemic) [Example 56, rac-7-[5-(5-{4-[(1-{5-[(3R)-2,6-dioxopiperidin-3-yl]pyridin-2-yl}piperidin-4-yl)methyl]piperazin-1-yl}-1,3,4-thiadiazol-2-yl)-4-[(propan-2-yl)amino]pyridin-2-yl]pyrrolo[1,2-b]pyridazine-3-carbonitrile], it took 160 nM to reach half-maximal degradation (DC50) and the Dmax turned out to be 102%.

Consider `N#Cc1cnn2c(-c3cc(NC4CCOCC4)c(-c4nnc(N5CCN(CC6CCN(c7ccc(C8CCC(=O)NC8=O)cc7F)CC6)CC5)s4)cn3)ccc2c1` (racemic) [Example 4, rac-7-[5-(5-{4-[(1-{4-[(3R)-2,6-dioxopiperidin-3-yl]-2-fluorophenyl}piperidin-4-yl)methyl]piperazin-1-yl}-1,3,4-thiadiazol-2-yl)-4-[(oxan-4-yl)amino]pyridin-2-yl]pyrrolo[1,2-b]pyridazine-3-carbonitrile], for which it took 65 nM to reach half-maximal degradation (DC50) and the Dmax was 90%.

Consider `N#Cc1cnn2c(-c3cc(NC4CCOCC4)c(-c4nnc(N5CCN(CC6CCN(c7ccc([C@H]8CCC(=O)NC8=O)nc7)CC6)CC5)s4)cn3)ccc2c1` (single isomer, unassigned) [Example 116], for which it took 100 nM to reach half-maximal degradation (DC50) and the Dmax was 111%.

As to `N#CCNc1cc(-c2ccc3cc(C#N)cnn23)ncc1-c1nnc(N2CC3CCC(C2)N3CC2CCN(c3ccc([C@H]4CCC(=O)NC4=O)cn3)CC2)s1` (racemic) [Example 104, rac-7-{4-[(cyanomethyl)amino]-5-(5-{8-[(1-{5-[(3R)-2,6-dioxopiperidin-3-yl]pyridin-2-yl}piperidin-4-yl)methyl]-3,8-diazabicyclo[3.2.1]octan-3-yl}-1,3,4-thiadiazol-2-yl)pyridin-2-yl}pyrrolo[1,2-b]pyridazine-3-carbonitrile], half-maximal degradation (DC50) was put at 4 nM and the Dmax was found to be 115%.

For `N#Cc1cnn2c(-c3cc(NC4CC4)c(-c4nnc(N5CC6CCC(C5)N6CC5CCN(c6ccc([C@H]7CCC(=O)NC7=O)cn6)CC5)s4)cn3)ccc2c1` (racemic) [Example 95, rac-7-[4-(cyclopropylamino)-5-(5-{8-[(1-{5-[(3R)-2,6-dioxopiperidin-3-yl]pyridin-2-yl}piperidin-4-yl)methyl]-3,8-diazabicyclo[3.2.1]octan-3-yl}-1,3,4-thiadiazol-2-yl)pyridin-2-yl]pyrrolo[1,2-b]pyridazine-3-carbonitrile], the half-maximal degradation concentration (DC50) turned out to be 27 nM and the Dmax worked out at 108%.

Take `N#Cc1cnn2c(-c3cc(NC4CCOCC4)c(-c4nnc(N5CCN(CC6CCN(c7ccc([C@@H]8CCC(=O)NC8=O)nc7)CC6)CC5)s4)cn3)ccc2c1` (single isomer, unassigned) [Example 117]: the DC50 was found to be 75 nM and the Dmax turned out to be 106%.
